Assay: Stability in aqueous solution (extent of free base precipitation from an aqueous solution of the test compound)
Format: physicochemical
Conditions: known temperature and known period (not specified), 富马酸盐

COc1cc2c3c(c1O)-c1c(ccc(OC)c1OC)C[C@@H]3N(C)CC2 [Ⅱˉ表示的富马酸根的式(Ⅲ)化合物, 紫堇定碱富马酸盐]
aqueous solution stability: 特别稳定 and 异常的稳定
